# Literature values, collected in patent US7390503B1, “Ondansetron orally disintegrating tablets” (Barr Laboratories, Inc., priority 2003, dated 2008).
# Where a name gives a salt, the structure may show the parent alone. Read-outs that look alike come from different tables or passages of the source.
# Settings: general statement, no test described
solubility in water (hydrochloride dihydrate),solubility in water,Compound
freely soluble in water,,Cc1nccn1CC1CCc2c(c3ccccc3n2C)C1=O (centres unmarked) [Ondansetron hydrochloride dihydrate]
,soluble in water,"Cc1nccn1CC1CCc2c(c3ccccc3n2C)C1=O (centres unmarked) [ondansetron in free base form, 1,2,3,9-tetrahydro-9-methyl-3-[(2-methyl-1H-imidazol-1-yl)methyl]-4H-carbazol-4-one]"
